According to ChEMBL document CHEMBL1201862, “PubChem BioAssay data set” (2004):
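How tested: cells in 96-well plates exposed to compound for 48 hours at five concentrations. At the GI50, growth is halved.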 The source made the active and inactive calls. Rule as the data show it: active = GI50 up to about 1.1 µM and inactive = higher.

Key:
Assay in all cases: DTP human tumour cell line panel, 48 h
[1] = system: LOX IMVI
[2] = system: HCC 2998
[3] = system: Malme-3M
[4] = system: SF-268
[5] = system: SK-OV-3
[6] = system: U-251
[7] = system: CAKI-1
[8] = system: CCRF-CEM
[9] = system: HCT-15
[10] = system: SW-620
[11] = system: HCT-116
[12] = system: IGROV-1
[13] = system: SF-295
[14] = system: EKVX
[15] = system: MOLT-4
[16] = system: TK-10
[17] = system: NCI-H460
[18] = system: OVCAR-8
[19] = system: KM12
[20] = system: RXF 393

| SMILES | GI50 [1] | GI50 [2] | GI50 [3] | GI50 [4] | GI50 [5] | GI50 [6] | GI50 [7] | GI50 [8] | GI50 [9] | GI50 [10] | GI50 [11] | GI50 [12] | GI50 [13] | GI50 [14] | GI50 [15] | GI50 [16] | GI50 [17] | GI50 [18] | GI50 [19] | GI50 [20] |
| --- | --- | --- | --- | --- | --- | --- | --- | --- | --- | --- | --- | --- | --- | --- | --- | --- | --- | --- | --- | --- |
| CS/C(=N\S(=O)(=O)c1ccc(Cl)cc1)NCCN/C(=N/S(=O)(=O)c1ccc(Cl)cc1)SC | > 100 µM (inactive) | > 100 µM (inactive) | 49.8 µM (inactive) | 21.3 µM (inactive) | 23.6 µM (inactive) | 18 µM (inactive) | > 100 µM (inactive) | > 100 µM (inactive) | > 100 µM | > 100 µM (inactive) | > 100 µM (inactive) | > 100 µM (inactive) | 61.2 µM (inactive) | 18.7 µM (inactive) | > 100 µM (inactive) | 31.6 µM (inactive) | > 100 µM (inactive) | 19.9 µM (inactive) | – | – |
| COc1cc2c3c(n(C)c(=O)c2cc1OC)-c1cc2c(cc1/C3=C/CCCCBr)OCO2 | 62.8 µM (inactive) | – | > 100 µM (inactive) | 37.4 µM (inactive) | > 100 µM (inactive) | 40.9 µM (inactive) | 5.86 µM (inactive) | 1.7 µM (inactive) | > 100 µM | 16.1 µM (inactive) | – | 6.56 µM (inactive) | 4.5 µM (inactive) | > 100 µM (inactive) | 4.51 µM (inactive) | > 100 µM (inactive) | 17.8 µM (inactive) | > 100 µM (inactive) | > 100 µM (inactive) | > 100 µM (inactive) |
| O=C(c1ccc(Cl)cc1)N1CCN=C1c1cc2ccccc2c2ccccc12 | 17.8 µM (inactive) | – | 17.3 µM (inactive) | 16.7 µM (inactive) | 16.1 µM (inactive) | 16.3 µM (inactive) | 15.7 µM (inactive) | 27.4 µM (inactive) | 16.6 µM | 17.3 µM (inactive) | 14.9 µM (inactive) | 14.3 µM (inactive) | 16.6 µM (inactive) | 13.8 µM (inactive) | 33.7 µM (inactive) | 15.2 µM (inactive) | 11.5 µM (inactive) | 17.3 µM (inactive) | 15.8 µM (inactive) | 16.1 µM (inactive) |
| CC(C)OP(=O)(OC(C)C)/C(=N/Nc1ccc([N+](=O)[O-])cc1)NCCO | 56.1 µM (inactive) | > 100 µM (inactive) | > 100 µM (inactive) | > 100 µM (inactive) | – | > 100 µM (inactive) | > 100 µM (inactive) | > 100 µM (inactive) | 72.8 µM | > 100 µM (inactive) | > 100 µM (inactive) | – | – | > 100 µM (inactive) | 48.9 µM (inactive) | > 100 µM (inactive) | > 100 µM (inactive) | > 100 µM (inactive) | > 100 µM (inactive) | – |
| CCOC1CCC2C(CCC(/C=C/c3ccc(O)c4ncccc34)N2C)C1 (stereo not given) | – | 24.2 µM (inactive) | 31.6 µM (inactive) | 6.24 µM (inactive) | – | 15.4 µM (inactive) | – | 4.65 µM (inactive) | 40.8 µM | 7.59 µM (inactive) | – | 11.4 µM (inactive) | 24 µM (inactive) | 4.98 µM (inactive) | 3.72 µM (inactive) | 33.2 µM (inactive) | 7.89 µM (inactive) | 3.53 µM (inactive) | 17.4 µM (inactive) | – |
| C=CCN1C(N)=C(C(N)=O)S/C1=C1/SC(=S)N(c2ccc(C)cc2)C1=O | – | – | 36.8 µM (inactive) | > 100 µM (inactive) | > 100 µM (inactive) | > 100 µM (inactive) | – | > 100 µM (inactive) | – | > 100 µM (inactive) | > 100 µM (inactive) | > 100 µM (inactive) | 49.8 µM (inactive) | – | > 100 µM (inactive) | > 100 µM (inactive) | > 100 µM (inactive) | > 100 µM (inactive) | > 100 µM (inactive) | – |
| COP(=O)(OC)C(N)CCSC (stereo not given) | > 100 µM (inactive) | – | > 100 µM (inactive) | > 100 µM (inactive) | > 100 µM (inactive) | > 100 µM (inactive) | > 100 µM (inactive) | > 100 µM (inactive) | > 100 µM | > 100 µM (inactive) | > 100 µM (inactive) | > 100 µM (inactive) | > 100 µM (inactive) | > 100 µM (inactive) | > 100 µM (inactive) | > 100 µM (inactive) | > 100 µM (inactive) | > 100 µM (inactive) | > 100 µM (inactive) | – |
| O=C(CCl)NC(Cc1ccc(F)cc1)C(=O)O (stereo not given) | > 100 µM (inactive) | > 92.7 µM (inactive) | 69.3 µM (inactive) | > 100 µM (inactive) | > 100 µM (inactive) | > 100 µM (inactive) | > 100 µM (inactive) | > 100 µM (inactive) | > 100 µM | > 100 µM (inactive) | > 100 µM (inactive) | > 100 µM (inactive) | > 100 µM (inactive) | > 46 µM (inactive) | > 100 µM (inactive) | – | > 100 µM (inactive) | > 100 µM (inactive) | > 100 µM (inactive) | – |
| COc1cc(Nc2c3ccccc3nc3ccccc23)ccc1NS(C)(=O)=O | 2.67 µM (inactive) | 14.2 µM (inactive) | 7.66 µM (inactive) | 4.39 µM (inactive) | 14.7 µM (inactive) | 4.59 µM (inactive) | 3.02 µM (inactive) | 28.8 µM (inactive) | – | 2.61 µM (inactive) | 3.27 µM (inactive) | 10.4 µM (inactive) | 3.84 µM (inactive) | 10 µM (inactive) | 40.7 µM (inactive) | – | 2.64 µM (inactive) | 4.5 µM (inactive) | 6.97 µM (inactive) | – |
| O=C1C=C[C@@H](COC2OC(CO)C(O)C(O)C2O)O1 (stereo not given in full) | 3.88 µM (inactive) | 40 µM (inactive) | – | 25.8 µM (inactive) | 73.6 µM (inactive) | 15.7 µM (inactive) | 17.9 µM (inactive) | 1.36 µM (inactive) | 3.69 µM | 3.78 µM (inactive) | > 100 µM (inactive) | 27.6 µM (inactive) | 18.1 µM (inactive) | 20.4 µM (inactive) | 4.39 µM (inactive) | – | 10.3 µM (inactive) | 14.2 µM (inactive) | 4.95 µM (inactive) | – |
| CC1=CC[C@@H]2[C@@H](CC[C@@]2(C)O)C(C)(C)[C@H]1CC[C@@H]1[C@@]2(C)CCC(=O)C(C)(C)O[C@@H]2CC[C@]1(C)O | 19.1 µM (inactive) | 18.7 µM (inactive) | – | 29.9 µM (inactive) | 74.3 µM (inactive) | 31.9 µM (inactive) | 36.1 µM (inactive) | 23.3 µM (inactive) | 14.9 µM | 32.7 µM (inactive) | 19.9 µM (inactive) | 28.9 µM (inactive) | 0.762 µM (active) | 42.1 µM (inactive) | 20.7 µM (inactive) | 83.4 µM (inactive) | 17.7 µM (inactive) | 24.8 µM (inactive) | 15.2 µM (inactive) | – |
| O=C(CSc1nc2ccccc2c2ccccc12)c1ccccc1 | > 100 µM (inactive) | – | > 100 µM (inactive) | > 100 µM (inactive) | – | > 100 µM (inactive) | > 100 µM (inactive) | – | > 100 µM | > 100 µM (inactive) | > 100 µM (inactive) | > 100 µM (inactive) | > 100 µM (inactive) | > 100 µM (inactive) | > 100 µM (inactive) | > 100 µM (inactive) | > 100 µM (inactive) | > 100 µM (inactive) | > 100 µM (inactive) | > 100 µM (inactive) |
